Reference: patent publication US10682371B2, “Small molecule conjugates specifically activated in tumor microenvironment for targeting and use thereof” (priority 2014, dated 2020)

What was measured:
Human colon cancer HT-29 = experiment: Multiple tumor models in nude mice: HT-29; format: in vivo; conditions: Table 51, 25 mg/kg once weekly for three weeks
Protocol: (§1) 1) Corresponding tumor cells were purchased from American type culture collection (ATCC) and identified according the specification provided by ATCC. Cells were cultivated in DMEM culture solution containing 10% fetal bovine serum at 37° C. and 5% CO2. The cells were passaged for every three days and cells within the 15th passage were used.
(§2) 2) Production of tumor. 5×10^6 corresponding cells were subcutaneously injected to the back of the nude mice. Mice were randomly grouped after the tumor reached at least 100 mm^3. Then treatment began and the day on which the treatment began was day 1.
(§3) 3) Course of treatment. […] The control group was administered by physiological saline. Animals were administered once weekly for three weeks.
(§4) 3) Course of treatment. According to the clinical application of A1, A1 was administered in a dose of ⅙ MTD, i.v., 17.6 μmol/kg. The control group was administered by physiological saline. Animals were administered once weekly for three weeks.
(§5) 3) Course of treatment. According to the clinical application of B1, B1 was administered in a dose of ⅙ MTD, i.v., 17.6 μmol/kg. The control group was administered by physiological saline. Animals were administered once weekly for three weeks.
as §3, §3

[1] = system: Human renal cancer OS-RC-2; experiment: Multiple tumor models in nude mice: OS-RC-2; format: in vivo; conditions: Table 51, 25 mg/kg once weekly for three weeks
Protocol: as §1, §2, §3, §4, §5, §3, §3

[2] = system: Human chronic leukemia K562; experiment: Multiple tumor models in nude mice: K562; format: in vivo; conditions: Table 51, 25 mg/kg once weekly for three weeks
Protocol: as §1, §2, §3, §4, §5, §3, §3

[3] = Multiple tumor models in nude mice: HT1080; format: in vivo; conditions: Table 51; Human colon caner HT1080; 25 mg/kg once weekly for three weeks
Protocol: as §1, §2, §3, §4, §5, §3, §3

[4] = system: Human pancreatic cancer Panc-1; experiment: Multiple tumor models in nude mice: Panc-1; format: in vivo; conditions: Table 51, 25 mg/kg once weekly for three weeks
Protocol: as §1, §2, §3, §4, §5, §3, §3

Human liver cancer Hepg2 = experiment: Multiple tumor models in nude mice: Hepg2; format: in vivo; conditions: Table 51, 25 mg/kg once weekly for three weeks
Protocol: as §1, §2, §3, §4, §5, §3, §3

[5] = system: Human ovarian cancer SK-OV-3; experiment: Multiple tumor models in nude mice: SK-OV-3; format: in vivo; conditions: Table 51, 25 mg/kg once weekly for three weeks
Protocol: as §1, §2, §3, §4, §5, §3, §3

[6] = system: Human breast cancer MDA-MB435; experiment: Multiple tumor models in nude mice: MDA-MB435; format: in vivo; conditions: Table 51, 25 mg/kg once weekly for three weeks
Protocol: as §1, §2, §3, §4, §5, §3, §3

[7] = system: Human non-small cell lung cancer A549; experiment: Multiple tumor models in nude mice: A549; format: in vivo; conditions: Table 51, 25 mg/kg once weekly for three weeks
Protocol: as §1, §2, §3, §4, §5, §3, §3

[8] = system: Human breast cancer MDA-MB231 cells; format: in vivo, nude mice; conditions: for Size of tumor (mm^3) Day 10 / Size of tumor (mm^3) Day 24: MDA-MB231, nude mice, IV 13.2 μmol/kg once weekly for four weeks; for Effect on tumor growth, in words: compared to control, camptothecin, capecitabine and daunorubicin groups
Protocol: as §1, with “Human breast cancer MDA-MB231” for “Corresponding tumor”, “[…] (DMEM” for “DMEM”, “medium)” for “solution”
2) Production of tumor. 5×10^6 MDA-MB231 cells were subcutaneously injected to the back of the nude mice. Mice were randomly grouped after the tumor reached at least 100 mm^3. Then treatment began and the day on which the treatment began was day 1.
3) Course of treatment. […] The drugs were administered once weekly for four weeks.
When R1 is 2-(2-Methoxyethoxy)Acetyl, and R3 is Ala, activation study and efficacy study were carried out by using compounds having different cleavable linker. The study methods are identical to those in Examples 10, 11 and 12. The in vitro activation efficiency was tested by asparagine endopeptidase and the tumor inhibition rate was tested by using human breast cancer MDA-MB231 model. […]

HEK293 cells = format: cell-based; conditions: HEK293, 72 hours, MTT; IC50 of modified compound compared to its corresponding cytotoxic compound; approximate multiples
Protocol: Toxicity detection method: a standard universal test program was used to perform the in vitro cytotoxicity test. 2500 HEK293 cells were cultured in a 96-well plate, and allowed to grow overnight. Cytotoxic compounds and their corresponding conjugated compounds were added into each well in different concentrations, cultivated with the cells at 37° C. for 72 hours, and then treated with MTT reagents. OD changes were read. The approximate multiples of the toxicity change were obtained by comparing the IC50 of the modified compounds to their corresponding cytotoxic compounds.

macrophage = experiment: Macrophage precursor antigen (F4/80) positive cells in CD45 positive cells of scar/CNV tissue, flow cytometry; format: in vivo, C57 mice; conditions: 50 mW laser, 48 hours after treatment
Protocol: (§6) Production and treatment of scar. […] Two weeks later, eye tissues were taken from 4 animals of each group for immunohistochemical (HE) staining. For another 4 animals, they were subjected to fixed irradiation through photocoagulation by 50 mW laser and then to treatment. 48 hours later, their eye tissues were taken, homogenated, filtered to isolate individual cells in the scar and choroidal neovascularization (CNV) tissues. The cells were washed by buffer twice and stained by biotin-conjugated anti-F4/80 (biotin-labeled precursor cell antigen from macrophage) and FITC-conjugated anti-CD45 (isothiocyanate fluorescein labeled leucocyte common antigen) at ambient temperature for 1 hour. Then the cells were washed by PBS containing 1% fetal bovine serum twice and then analyzed for the ratio of the macrophage precursor antigen positive cells in the leucocyte common antigen (CD45) positive cells by flow cytometry.

[9] = system: scar and choroidal neovascularization (CNV); experiment: Inhibition of scar and choroidal neovascularization (CNV) by eye drops after laser photocoagulation; format: in vivo, C57 mice; conditions: 150 mW laser photocoagulation, eye drops daily, two weeks; C57 mice
Protocol: Animal: C57 mice of 16 weeks old, all female and 8 animals in each group.
as §6

HT1080 cells = experiment: Tumor treatment in nude mice, HT1080 model (Example 61); format: in vivo; conditions: HT1080 in nude mice, IV once weekly for four weeks, E1-E4 15 mg/kg, mitomycin 2 mg/kg
Protocol: as §1, with “HT1080” for “Corresponding tumor”
2) Production of tumor. 5×10^6 HT1080 cells were subcutaneously injected to the back of the nude mice. Mice were randomly grouped after the tumor reached at least 100 mm^3. Then treatment began and the day on which the treatment began was day 1.
[…]. The control group was administered by physiological saline. Drugs were administered once weekly for four weeks.

Which “inhibitory rate on tumor (Day 26)” value (Human colon cancer HT-29) does the source give for `COCCOCC(=O)N[C@H](C)C(=O)N[C@H](C)C(=O)N[C@H](CC(N)=O)C(=O)Nc1ccc(COC(=O)OC(C(=O)OC2C[C@@]3(O)[C@@H](OC(=O)c4ccccc4)[C@H]4[C@](C)(C(=O)[C@H](O)C(=C2C)C3(C)C)[C@@H](O)CC2OC[C@]24OC(C)=O)[C@@H](NC(=O)OC(C)(C)C)c2ccccc2)cc1` (stereo partly drawn) [Compound D1, 2-(2-methoxyethoxy) acetyl-L-Ala-L-Ala-L-Asn-4-amino benzyl-Docetaxel] here?
The value was 68.6%.

And the “inhibitory rate on tumor (Day 26)” value [1]?
The value was 87.7%.

And the “inhibitory rate on tumor (Day 26)” value [2]?
Its value is 84.6%.

And the “inhibitory rate on tumor (Day 26)” value [3]?
Its value is 94.6%.

And the “inhibitory rate on tumor (Day 26)” value [4]?
The value was 89.4%.

What about the “inhibitory rate on tumor (Day 26)” value (Human liver cancer Hepg2) of the same molecule?
The value was 75.7%.

And the “inhibitory rate on tumor (Day 26)” value [5]?
The value was 82.9%.

And the “inhibitory rate on tumor (Day 26)” value [6]?
Its value is 93.5%.

What about the “inhibitory rate on tumor (Day 26)” value [7] of the same molecule?
The value was 90.4%.

What does the source list for `CCCCCOC(=O)Nc1nc(=O)n([C@@H]2O[C@H](C)[C@@H](OC(=O)OCc3ccc(NC(=O)[C@H](CC(N)=O)NC(=O)[C@H](C)NC(=O)[C@H](C)NC(=O)CCCCCCC(=O)NO)cc3)[C@H]2O)cc1F` [Compound S3, 4-N—(N—(N—(N-(8-(N-hydroxylamino)-1,8-octandioic acid-1-monoacyl)-L-alanyl)-L-alanyl)-L-asparaginyl)-amino benzyl alcohol-capecitabine-carbonic acid diester]?
Size of tumor (mm^3) Day 10 [8]: 85.67 ± 36.42 mm^3; Size of tumor (mm^3) Day 24 [8]: 0 mm^3; Effect on tumor growth, in words [8]: strong inhibitory effect on tumor growth; Cytoxicity reduced (Multiple) (HEK293 cells): 78 Multiple

Which “Size of tumor (mm^3) Day 10” value [8] does the source give for `COc1cccc2c1C(=O)c1c(O)c3c(c(O)c1C2=O)C[C@@](O)(C(C)=O)C[C@@H]3O[C@H]1C[C@H](NC(=O)OCc2ccc(NC(=O)[C@H](CC(N)=O)NC(=O)[C@H](C)NC(=O)[C@H](C)NC(=O)CCCCCN3C(=O)C=CC3=O)cc2)[C@H](O)[C@H](C)O1` [Compound S5, 4-N—(N—(N—(N-(6-maleimidocaproyl)-L-alanyl)-L-alanyl)-L-asparaginyl)-amino benzyl alcohol-daunorubicin-carbamate] here?
Its value is 63.67 ± 46.64 mm^3.

What about the “Size of tumor (mm^3) Day 24” value [8] of the same molecule?
Its value is 46.45 ± 19.43 mm^3.

What about the “Effect on tumor growth, in words” value [8] of the same molecule?
The value was “strong inhibitory effect on tumor growth”.

What about the “Cytoxicity reduced (Multiple)” value (HEK293 cells) of the same molecule?
Its value is 125 Multiple.

Which “F4/80+ cells among CD45+ cells (%)” value (macrophage) does the source give for `CO[C@@]12[C@H](COC(N)=O)C3=C(C(=O)C(C)=C(N)C3=O)N1C[C@@H]1N[C@@H]12` [mitomycin, reference compound] here?
Its value is 14.6 ± 2.4%.

And the “Maximal scar radius observed by pathological staining (pixel)” value [9]?
Its value is 953 ± 249 pixel.

And the “Size of tumor (mm^3) Day 13” value (HT1080 cells; Day 13)?
The value was 876.48 ± 78.29 mm^3.

And the “inhibitory rate on tumor Day 13” value (HT1080 cells; Day 13)?
Its value is 3.7%.

And the “Size of tumor (mm^3) Day 26” value (HT1080 cells; Day 26)?
Its value is 1410.28 ± 375.46 mm^3.

And the “inhibitory rate on tumor (Day 26)” value (HT1080 cells; Day 26)?
Its value is 10.4%.
